Data: ChEMBL document CHEMBL4602687, “Dual Binding to Orthosteric and Allosteric Sites Enhances the Anticancer Activity of a TRAP1-Targeting Drug” (J Med Chem, 2020)
One block for each compound: values may come before it. Calls of active or inactive are those of the source. No cut-off for these calls is given here.

Tests used:
NCI-H460 [1] = assay: Cytotoxicity against human NCI-H460 cells assessed as reduction in cell viability up to 3 uM measured after 24 hrs by MTT assay; assay type: functional, cell-based
LN-229 = assay: Cytotoxicity against human LN229 cells assessed as reduction in cell viability up to 3 uM measured after 24 hrs by MTT assay; assay type: functional, cell-based
PC-3 = assay: Cytotoxicity against human PC3 cells assessed as reduction in cell viability up to 3 uM measured after 24 hrs by MTT assay; assay type: functional, cell-based
[2] = target: T1, Heat shock protein 75 kDa, mitochondrial (Homo sapiens) (UniProt Q12931); assay: (§1) Binding affinity to recombinant wild-type human TRAP1 ATP site expressed in Escherichia coli BL21 (DE3) assessed as induction of conformational change by measuring closed state population of TRAP1 at 10 uM measured after 30 mins in absence of ATP by TEM analysis (reference value: 52.1 +/- 0.6 %)
T1 sequence (whole entry): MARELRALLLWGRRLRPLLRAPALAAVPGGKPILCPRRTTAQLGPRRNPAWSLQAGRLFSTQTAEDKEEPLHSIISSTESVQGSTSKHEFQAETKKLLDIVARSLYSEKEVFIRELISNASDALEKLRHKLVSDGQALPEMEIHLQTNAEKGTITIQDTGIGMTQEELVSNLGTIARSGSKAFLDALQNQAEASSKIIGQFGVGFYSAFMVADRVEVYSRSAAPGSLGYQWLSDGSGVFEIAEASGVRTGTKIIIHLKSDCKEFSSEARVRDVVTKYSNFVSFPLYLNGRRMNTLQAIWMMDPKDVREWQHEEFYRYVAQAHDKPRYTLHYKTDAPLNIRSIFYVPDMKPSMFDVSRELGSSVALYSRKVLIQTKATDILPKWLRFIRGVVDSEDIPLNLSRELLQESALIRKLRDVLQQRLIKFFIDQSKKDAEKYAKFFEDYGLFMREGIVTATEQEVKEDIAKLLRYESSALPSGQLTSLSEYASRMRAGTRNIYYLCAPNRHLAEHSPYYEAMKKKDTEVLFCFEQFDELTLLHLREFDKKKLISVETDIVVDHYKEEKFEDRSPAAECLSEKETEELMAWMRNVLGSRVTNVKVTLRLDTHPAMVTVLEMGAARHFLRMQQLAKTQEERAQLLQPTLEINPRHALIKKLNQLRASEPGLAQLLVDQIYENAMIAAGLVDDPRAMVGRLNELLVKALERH

NCI-H460 [3] = assay: Antitumor activity against human NCI-H460 cells xenografted in nude mouse assessed as reduction in tumor cell proliferation at 5 mg/kg, ip administered daily by Ki67 staining based immunohistochemistry analysis; assay type: functional, organism-based
NCI-H460 [4] = assay: Antitumor activity against human NCI-H460 cells xenografted in nude mouse assessed as tumor growth inhibition at 5 mg/kg, ip administered daily; assay type: functional, organism-based
[5] = target: T1, Heat shock protein 75 kDa, mitochondrial (Homo sapiens); assay: Inhibition of recombinant wild-type human TRAP1 chaperone activity expressed in Escherichia coli BL21 (DE3) at 5 uM preincubated for 30 mins followed by denatured luciferase and ATP addition by luciferase refolding assay
[6] = target: T1, Heat shock protein 75 kDa, mitochondrial (Homo sapiens); assay: as §1, with “uM preincubated for 30 mins followed by ATP addition and” for “uM”, “mins” for “mins in absence of ATP”
Mus musculus [7] = assay: In vivo inhibition of TRAP1 in nude mouse xenografted with human NCI-H460 cells assessed as increase in SIRT3 degradation at 5 mg/kg, ip administered daily by Western blot analysis; assay type: functional, organism-based
HeLa = assay: Cytotoxicity against human HeLa cells assessed as reduction in cell viability up to 3 uM measured after 24 hrs by MTT assay; assay type: functional, cell-based
Mus musculus [8] = assay: In vivo inhibition of TRAP1 in nude mouse xenografted with human NCI-H460 cells assessed as increase in AMPK phosphorylation at 5 mg/kg, ip administered daily by Western blot analysis; assay type: functional, organism-based
[9] = target: T1, Heat shock protein 75 kDa, mitochondrial (Homo sapiens); assay: Inhibition of recombinant wild-type human TRAP1 ATPase activity expressed in Escherichia coli BL21 (DE3) preincubated for 0.5 hrs followed by ATP addition and measured after 3 hrs by PiColorLock Gold reagent based colorimetric assay
Homo sapiens [10] = species: Homo sapiens; assay: Inhibition of recombinant full-length human TRAP1 W383/W4F mutant expressed in Escherichia coli BL21 (DE3) assessed as intrinsic fluorescence quenching of tryptophan residues at 10 uM measured after 1 hr by fluorescence spectrophotometric method
Mus musculus [11] = assay: In vivo inhibition of TRAP1 in nude mouse xenografted with human NCI-H460 cells assessed as increase in CHOP expression at 5 mg/kg, ip administered daily by Western blot analysis; assay type: functional, organism-based
NCI-H460 [12] = assay: Antitumor activity against human NCI-H460 cells xenografted in nude mouse assessed as induction of tumor cell death by measuring increase in cleaved caspase-9 expression at 5 mg/kg, ip administered daily by Western blot analysis; assay type: functional, organism-based
[13] = target: T1, Heat shock protein 75 kDa, mitochondrial (Homo sapiens); assay: Inhibition of TRAP1 in human PC3 cells assessed as increase in reactive oxygen species generation at 10 uM measured after 2 hrs by Mito-SOX probe based flow cytometry; assay type: cell-based; details: PC-3
[14] = target: T1, Heat shock protein 75 kDa, mitochondrial (Homo sapiens); assay: Inhibition of TRAP1 in human PC3 cells assessed as loss of mitochondrial membrane potential at 10 uM measured after 2 hrs by TMRM dye based flow cytometry; assay type: cell-based; details: PC-3
[15] = target: T1, Heat shock protein 75 kDa, mitochondrial (Homo sapiens); assay: Inhibition of TRAP1 in human PC3 cells assessed as increase in AMPK phosphorylation at 5 uM measured after 2 to 12 hrs by Western blot analysis; assay type: cell-based; details: PC-3
NCI-H460 [16] = assay: Antitumor activity against human NCI-H460 cells xenografted in nude mouse assessed as induction of tumor cell death by measuring increase in cleaved caspase-3 expression at 5 mg/kg, ip administered daily by Western blot analysis; assay type: functional, organism-based
[17] = target: T1, Heat shock protein 75 kDa, mitochondrial (Homo sapiens); assay: Inhibition of TRAP1 in human PC3 cells assessed as reduction in SIRT3 expression at 5 uM measured after 2 to 12 hrs by Western blot analysis; assay type: cell-based; details: PC-3
[18] = target: T1, Heat shock protein 75 kDa, mitochondrial (Homo sapiens); assay: Inhibition of TRAP1 in human PC3 cells assessed as reduction in SDHB expression at 5 uM measured after 2 to 12 hrs by Western blot analysis; assay type: cell-based; details: PC-3
Homo sapiens [19] = species: Homo sapiens; assay: Inhibition of recombinant full-length human TRAP1 W585/W4F mutant expressed in Escherichia coli BL21 (DE3) assessed as intrinsic fluorescence quenching of tryptophan residues at 10 uM measured after 1 hr by fluorescence spectrophotometric method
[20] = target: T1, Heat shock protein 75 kDa, mitochondrial (Homo sapiens); assay: Inhibition of TRAP1 in human PC3 cells assessed as increase in CHOP expression at 5 uM measured after 2 to 12 hrs by Western blot analysis; assay type: cell-based; details: PC-3
Mus musculus [21] = assay: In vivo inhibition of TRAP1 in nude mouse xenografted with human NCI-H460 cells assessed as increase in SDHB degradation at 5 mg/kg, ip administered daily by Western blot analysis; assay type: functional, organism-based

Compound: CO[C@H]1/C=C\C=C(/C)C(=O)NC2=CC(=O)C(NCCCCCC[P+](c3ccccc3)(c3ccccc3)c3ccccc3)=C(C[C@@H](C)C[C@H](OC)[C@H](O)[C@@H](C)/C=C(\C)[C@@H]1OC(N)=O)C2=O
Activity (NCI-H460 [1]): Active | Activity (LN-229): Active | Activity (PC-3): Active

Activity [2]: 28.2% | inhibition [5]: Active | Activity [6]: 41.3% | inhibition [9]: Active | inhibition (Homo sapiens [10]): Active | inhibition [13]: Active | inhibition [14]: Active | inhibition [15]: inactive | inhibition [17]: inactive | inhibition [18]: inactive | inhibition (Homo sapiens [19]): Active | inhibition [20]: inactive
Compound: Nc1ncnc2c1nc(Sc1cc3c(cc1I)OCO3)n2CCCCCC[P+](c1ccccc1)(c1ccccc1)c1ccccc1
Activity (NCI-H460 [3]): inactive | TGI (NCI-H460 [4]): inactive | inhibition (Mus musculus [7]): inactive | Activity (HeLa): Active | inhibition (Mus musculus [8]): inactive | inhibition (Mus musculus [11]): inactive | Activity (NCI-H460 [12]): inactive | Activity (NCI-H460 [16]): inactive | Activity (NCI-H460 [1]): Active | Activity (LN-229): Active | inhibition (Mus musculus [21]): inactive | Activity (PC-3): Active

Activity [2]: 28.3% | inhibition [5]: Active | Activity [6]: 26.5% | inhibition [9]: Active
Compound: CC(C)NCCCn1c(Sc2cc3c(cc2I)OCO3)nc2c(N)ncnc21
Activity (HeLa): Active | Activity (NCI-H460 [1]): Active | Activity (LN-229): Active | Activity (PC-3): Active

inhibition [9]: Active
Compound: Nc1ncnc2c1nc(Sc1cc3c(cc1I)OCO3)n2CCCCCCCC[P+](c1ccccc1)(c1ccccc1)c1ccccc1

Compound: CC(C)c1cc(-c2n[nH]c(=O)n2-c2ccc3c(ccn3C)c2)c(O)cc1O
Activity (HeLa): Active | Activity (NCI-H460 [1]): Active | Activity (LN-229): Active | Activity (PC-3): Active

inhibition [9]: Active
Compound: Nc1ncnc2c1nc(Sc1cc3c(cc1I)OCO3)n2CCCCCCCCCCCC[P+](c1ccccc1)(c1ccccc1)c1ccccc1

inhibition [9]: Active
Compound: Nc1ncnc2c1nc(Sc1cc3c(cc1I)OCO3)n2CCC[P+](c1ccccc1)(c1ccccc1)c1ccccc1
